These results are taken from ChEMBL document CHEMBL1201862, “PubChem BioAssay data set” (2004).

Among the test systems are MDA-N; 786-0; Hs-578T; XF498; DMS-114; HOP-18; SNB-78; M19-MEL; RXF 631.
Holding throughout (test): NCI tumour cell line growth inhibition, 48 h

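Step 1: Grow cells in 96-well plates. Step 2: Expose to compound for 48 hours at 5 concentrations. Step 3: Interpolate endpoints linearly; if unreached, use highest concentration. GI50 = concentration required for 50% inhibition of growth.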 Active and inactive are the calls of the source. No stated cut-off is given here; in the data, active = GI50 up to about 1.1 µM and inactive = higher. Where only a bound is given, the exact number is not on record here.

On to `COC1=C2CC(C)CC(OC)C(OC(=O)CN)[C@H](C)/C=C(\C)C(OC(N)=O)C(OC)/C=C\C=C(/C)C(=O)NC(=CC1=O)C2=O` (some centres not stated), for which the figures for the GI50 in the assay on MDA-N, in the assay on 786-0 and in the assay on Hs-578T were 0.443 µM (active), 0.429 µM (active) and 3.79 µM (inactive), respectively.
With `CSc1nc2c(ncn2C2OCC(O)C(O)C2O)c(=O)[nH]1` (configuration not stated), the GI50 with XF498, in the assay on DMS-114, in the assay on HOP-18, in the assay with SNB-78 and with M19-MEL was > 100 µM (inactive) in each case.
Regarding `CN(C(=O)c1ccccc1)c1ccc2c(c1)C(=O)c1ccccc1C2=O`, the GI50 in the assay with XF498, with DMS-114 and in the assay with M19-MEL was > 100 µM (inactive) in each case.
On to `Cc1ccc(NP(=O)(Oc2ccccc2)N(CCCl)CCCl)cc1` (configuration not stated), for which the GI50 with DMS-114 is 34.4 µM (inactive); with RXF 631, 10 µM (inactive); in the assay on HOP-18, > 100 µM (inactive); in the assay on SNB-78, > 100 µM (inactive); with M19-MEL it was 28.7 µM (inactive).
On to `O=C(O)/C=C/c1nc2ccccc2c(=O)o1`, for which the GI50 in the assay on DMS-114, in the assay on 786-0, in the assay with HOP-18, in the assay with SNB-78 and in the assay on M19-MEL was > 100 µM (inactive) each time.
In the case of `Cc1ccc2[nH]c3c(C)c4ccncc4c(C)c3c2c1`, the GI50 was 1.6 µM (inactive) in the assay on XF498; 0.369 µM (active) in the assay on DMS-114; 0.252 µM (active) with HOP-18; 1.73 µM (inactive) with SNB-78; 1.36 µM (inactive) with M19-MEL.
Regarding `Cc1ccc([N+](=O)[O-])cc1S(=O)(=O)Nc1ccc(C2=NNC(c3ccccc3O)C2)cc1` (configuration not stated), the GI50 is 28.6 µM (inactive) in the assay with MDA-N and 43.7 µM (inactive) in the assay with Hs-578T.
As to `COc1cc(C2C(Cl)C(=O)N2NC(=O)c2ccccc2O)ccc1O` (configuration not stated), the GI50 is > 100 µM (inactive) with XF498; > 100 µM (inactive) in the assay with DMS-114; 34.8 µM (inactive) in the assay with HOP-18; > 100 µM (inactive) with SNB-78; > 100 µM (inactive) with M19-MEL.
In the case of `O=c1c2c(nc3[nH]ccn13)CCCC2`, the GI50 with Hs-578T is 1.23 µM (inactive).
With `COc1cc(CNc2nc3cc(C(F)(F)F)ccc3nc2-c2ccccc2)cc(OC)c1OC`, the GI50 was 30.6 µM (inactive) in the assay with MDA-N, 30 µM (inactive) with 786-0 and 37.4 µM (inactive) in the assay on Hs-578T.
Consider `CN/N=C(\C(=O)Nc1ccc(C)c(C)c1)C(C(=O)OC)c1nc2ccc([N+](=O)[O-])cc2nc1O` (configuration not stated), for which the GI50 with XF498 is > 100 µM (inactive); in the assay on DMS-114, 42.2 µM (inactive); with SNB-78 it was > 100 µM (inactive); with M19-MEL, > 100 µM (inactive).
Turning to `O=C(CCl)NNC1=Nc2ccc(Cl)cc2SC1`, the GI50 was 1.85 µM (inactive) in the assay on XF498; 1.98 µM (inactive) in the assay on DMS-114; 1.88 µM (inactive) in the assay with HOP-18; 2.03 µM (inactive) with SNB-78; 2.18 µM (inactive) with M19-MEL.
Consider `Cc1cc(C)c(S(=O)(=O)N(CCCCCN)OCCCN)c(C)c1`, for which the GI50 with MDA-N was 16.7 µM (inactive); with Hs-578T, 22 µM (inactive).
For `COc1ccc(N2C(Cl)C(=O)C2c2c[nH]c3ccccc23)cc1` (configuration not stated), the GI50 in the assay with XF498, in the assay with DMS-114 and in the assay on M19-MEL was > 100 µM (inactive) each time.
For `COC(Cc1cc(C(O)(c2ccc(C(C)(C)C)cc2)c2cc(CC(OC)(c3cc(C(OC)(c4ccc(C(C)(C)C)cc4)c4ccc(C(C)(C)C)cc4)c(C)cc3C)c3cc(C(OC)(c4ccc(C(C)(C)C)cc4)c4ccc(C(C)(C)C)cc4)c(C)cc3C)c(C)cc2C)c(C)cc1C)(c1cc(C(OC)(c2ccc(C(C)(C)C)cc2)c2ccc(C(C)(C)C)cc2)c(C)cc1C)c1cc(C(OC)(c2ccc(C(C)(C)C)cc2)c2ccc(C(C)(C)C)cc2)c(C)cc1C`, the GI50 in the assay on MDA-N and in the assay on Hs-578T was > 75 µM (inactive) each time.
Consider `CC1(C(=O)O)CCC(C(=O)O)C(C)(C)O1` (configuration not stated), for which the GI50 in the assay on MDA-N and with Hs-578T was > 100 µM (inactive) in each case.
Turning to `CC(=O)c1c(-c2ccco2)c(C#N)c(=S)n(C2OC(CO)C(O)C(O)C2O)c1C` (configuration not stated), the GI50 is 92.3 µM (inactive) in the assay with MDA-N and 64.9 µM (inactive) in the assay on Hs-578T.
